Measurements taken from patent publication US9963464B2, “Macrocyclic compounds” (Bayer Pharma Aktiengesellschaft, priority 2014, dated 2018).
Where two headings read alike, the source gives them in different places.

Experiments:
[1] = target: T1, CDK9/CycT1 (Homo sapiens, UniProt P50750); experiment: CDK9/CycT1 kinase assay (TR-FRET, Method 1a); type: biochemical; settings: for IC50: Method 1a, 10 μM ATP; for Selectivity CDK9 over CDK2: IC50 (CDK2)/IC50 (CDK9): Methods 1a and 2a, minimal values where CDK9 IC50 is at the assay limit
T1 construct: Recombinant full-length His-tagged human CDK9 and CycT1; His; purchased Invitrogen PV4131; host or cells: insect cells
T1 sequence (P50750 whole entry): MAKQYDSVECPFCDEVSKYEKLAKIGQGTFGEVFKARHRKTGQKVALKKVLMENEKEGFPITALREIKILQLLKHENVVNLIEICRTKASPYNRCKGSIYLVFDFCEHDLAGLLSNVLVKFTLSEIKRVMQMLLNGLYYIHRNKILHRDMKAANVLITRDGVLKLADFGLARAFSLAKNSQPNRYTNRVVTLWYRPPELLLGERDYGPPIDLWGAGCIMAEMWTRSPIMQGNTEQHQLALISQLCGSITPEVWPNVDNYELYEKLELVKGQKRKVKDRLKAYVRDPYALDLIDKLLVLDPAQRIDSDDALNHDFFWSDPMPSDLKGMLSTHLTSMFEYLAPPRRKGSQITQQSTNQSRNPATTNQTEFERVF
T1 sequence (O60563 whole entry partner): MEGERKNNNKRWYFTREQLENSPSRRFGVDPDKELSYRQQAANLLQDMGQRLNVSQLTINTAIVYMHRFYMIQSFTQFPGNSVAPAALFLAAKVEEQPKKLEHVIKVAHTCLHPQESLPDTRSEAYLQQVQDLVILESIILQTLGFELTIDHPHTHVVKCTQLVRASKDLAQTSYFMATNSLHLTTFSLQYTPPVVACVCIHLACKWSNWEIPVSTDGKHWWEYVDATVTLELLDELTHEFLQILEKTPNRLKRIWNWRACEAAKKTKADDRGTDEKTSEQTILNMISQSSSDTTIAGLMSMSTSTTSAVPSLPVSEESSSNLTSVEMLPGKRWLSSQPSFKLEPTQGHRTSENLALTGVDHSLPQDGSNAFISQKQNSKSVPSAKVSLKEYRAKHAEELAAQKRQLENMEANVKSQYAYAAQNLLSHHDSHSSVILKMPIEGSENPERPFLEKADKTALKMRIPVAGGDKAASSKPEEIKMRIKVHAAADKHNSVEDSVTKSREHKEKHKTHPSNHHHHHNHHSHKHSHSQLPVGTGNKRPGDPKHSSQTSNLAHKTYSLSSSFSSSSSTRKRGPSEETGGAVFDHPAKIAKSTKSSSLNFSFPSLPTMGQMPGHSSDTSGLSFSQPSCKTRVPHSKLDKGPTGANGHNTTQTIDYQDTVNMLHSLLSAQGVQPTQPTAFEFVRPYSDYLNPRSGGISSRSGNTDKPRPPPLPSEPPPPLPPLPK
Text: 1a. CDK9/CycT1 Kinase Assay:
CDK9/CycT1-inhibitory activity of compounds of the present invention was quantified employing the CDK9/CycT1 TR-FRET assay as described in the following paragraphs:
Recombinant full-length His-tagged human CDK9 and CycT1, expressed in insect cells and purified by Ni-NTA affinity chromatography, were purchased from Invitrogen (Cat. No PV4131). As substrate for the kinase reaction biotinylated peptide biotin-Ttds-YISPLKSPYKISEG (C-terminus in amid form) was used which can be purchased e.g. from the company JERINI Peptide Technologies (Berlin, Germany). For the assay 50 nl of a 100 fold concentrated solution of the test compound in DMSO was pipetted into a black low volume 384 well microtiter plate (Greiner Bio-One, Frickenhausen, Germany), 2 μl of a solution of CDK9/CycT1 in aqueous assay buffer [50 mM Tris/HCl pH 8.0, 10 mM MgCl2, 1.0 mM dithiothreitol, 0.1 mM sodium ortho-vanadate, 0.01% (v/v) Nonidet-P40 (Sigma)] were added and the mixture was incubated for 15 min at 22° C. to allow pre-binding of the test compounds to the enzyme before the start of the kinase reaction. […] The concentration of CDK9/CycT1 was adjusted depending of the activity of the enzyme lot and was chosen appropriate to have the assay in the linear range, typical concentrations were in the range of 1 μg/mL. The reaction was stopped by the addition of 5 μl of a solution of TR-FRET detection reagents (0.2 μM streptavidine-XL665 [Cisbio Bioassays, Codolet, France] and 1 nM anti-RB(pSer807/pSer811)-antibody from BD Pharmingen [#558389] and 1.2 nM LANCE EU-W1024 labeled anti-mouse IgG antibody [Perkin-Elmer, product no. AD0077]) in an aqueous EDTA-solution (100 mM EDTA, 0.2% (w/v) bovine serum albumin in 100 mM HEPES pH 7.5).
The resulting mixture was incubated 1 h at 22° C. to allow the formation of complex between the phosphorylated biotinylated peptide and the detection reagents. Subsequently the amount of phosphorylated substrate was evaluated by measurement of the resonance energy transfer from the Eu-chelate to the streptavidine-XL. Therefore, the fluorescence emissions at 620 nm and 665 nm after excitation at 350 nm was measured in a HTRF reader, e.g. a Rubystar (BMG Labtechnologies, Offenburg, Germany) or a Viewlux (Perkin-Elmer). The ratio of the emissions at 665 nm and at […] was taken as the measure for the amount of phosphorylated substrate. The data were normalised (enzyme reaction without inhibitor=0% inhibition, all other assay components but no enzyme=100% inhibition).

[2] = test system: NCI-H460 cells; experiment: Proliferation assay NCI-H460; type: cell-based, human; settings: 4 days, crystal violet, read-out: Inhibition of NCI-H460 cell proliferation IC50
Procedure: Cultivated tumour cells (HeLa, human cervical tumour cells, ATCC CCL-2; NCI-H460, human non-small cell lung carcinoma cells, ATCC HTB-177; A2780, human ovarian carcinoma cells, ECACC #93112519; DU 145, hormone-independent human prostate carcinoma cells, ATCC HTB-81; HeLa-MaTu-ADR, multidrug-resistant human cervical carcinoma cells, EPO-GmbH Berlin; Caco-2, human colorectal carcinoma cells, ATCC HTB-37; B16F10, mouse melanoma cells, ATCC CRL-6475) were plated at a density of 5,000 cells/well (DU145, HeLa-MaTu-ADR), 3,000 cells/well (NCI-H460, HeLa), 2,500 cells/well (A2780), 1,500 cells/well (Caco-2), or 1,000 cells/well (B16F10) in a 96-well multititer plate in 200 μL of their respective growth medium supplemented 10% fetal calf serum. After 24 hours, the cells of one plate (zero-point plate) were stained with crystal violet (see below), while the medium of the other plates was replaced by fresh culture medium (200 μl), to which the test substances were added in various concentrations (0 μM, as well as in the range of 0.001-10 μM). The cells were incubated for 4 days in the presence of test substances. Cell proliferation was determined by staining the cells with crystal violet: the cells were fixed by adding 20 μl/measuring point of an 11% glutaric aldehyde solution for 15 minutes at room temperature. After three washing cycles of the fixed cells with water, the plates were dried at room temperature. The cells were stained by adding 100 μl/measuring point of a 0.1% crystal violet solution (pH 3.0). After three washing cycles of the stained cells with water, the plates were dried at room temperature. The dye was dissolved by adding 100 μl/measuring point of a 10% acetic acid solution. The extinction was determined by photometry at a wavelength of 595 nm. The change of cell number, in percent, was calculated by normalization of the measured values to the extinction values of the zero-point plate (=0%) and the extinction of the untreated (0 μm) cells (=100%). The IC50 values (inhibitory concentration at 50% of maximal effect) were determined by means of a 4 parameter fit. Non-adherent MOLM-13 human acute myeloid leukemia cells (DSMZ ACC 554) were seeded at a density of 5,000 cells/well in a 96-well multititer plate in 100 μL of growth medium supplemented 10% fetal calf serum. After 24 hours, cell viability of one plate (zero-point plate) was determined with the Cell Titre-Glo Luminescent Cell Viability Assay (Promega), while 50 μL of test compound containing medium was added to the wells of the other plates (final concentrations in the range of 0.001-1 μM and DMSO controls). Cell viability was assessed after 72-hour exposure with the Cell Titre-Glo Luminescent Cell Viability Assay (Promega). IC50 values (inhibitory concentration at 50% of maximal effect) were determined by means of a 4 parameter fit on measurement data which were normalized to vehicle (DMSO) treated cells (=100%) and measurement readings taken immediately before compound exposure (=0%).

| Structure (SMILES) | IC50 [1] [nM] | Selectivity CDK9 over CDK2: IC50 (CDK2)/IC50 (CDK9) [1] | IC50 ([2]; Homo sapiens, NCI-H460, 96 h) [nM] | IC50 [2] [nM] |
| --- | --- | --- | --- | --- |
| CS(=N)(=O)Cc1cc2nc(c1)OCCCOc1cc(F)ccc1-c1cc(ncc1F)N2 (racemic) [Example 5, (rac)-15,19-Difluoro-8-[(S-methylsulfonimidoyl)methyl]-3,4-dihydro-2H,11H-10,6-(azeno)-12,16-(metheno)-1,5,11,13-benzodioxadiazacyclooctadecine] | 3 | 0.65 | 6 | – |
| NCCS(=O)(=O)Cc1cc2nc(c1)OCCCOc1cc(F)ccc1-c1cc(ncc1F)N2 [Example 26, 2-({[15,19-difluoro-3,4-dihydro-2H,11H-10,6-(azeno)-12,16-(metheno)-1,5,11,13-benzodioxadiazacyclooctadecin-8-yl]methyl}sulfonyl)ethanamine] | 5.9 | 1.7 | 395 | – |
| CS(=N)(=O)Cc1cc2nc(c1)OCCCCOc1cc(F)ccc1-c1cc(ncc1F)N2 (racemic) [Example 14, (rac)-16,20-difluoro-9-[(S-methylsulfonimidoyl)methyl]-2,3,4,5-tetrahydro-12H-11,7-(azeno)-13,17-(metheno)-1,6,12,14-benzodioxadiazacyclononadecine] | 4.8 | 4.1 | 19 | – |
| CS(=O)(Cc1cc2nc(c1)OCCCOc1cc(F)ccc1-c1cc(ncc1F)N2)=NS(=O)(=O)CCN (racemic) [Example 23, (rac)-2-amino-N-[{[15,19-difluoro-3,4-dihydro-2H,11H-10,6-(azeno)-12,16-(metheno)-1,5,11,13-benzodioxadiazacyclooctadecin-8-yl]methyl}(methyl)oxido-λ^6-sulfanylidene]ethanesulfonamide] | 8.7 | 3.5 | 741 | – |
| CS(=N)(=O)Cc1cc2nc(c1)OCCCOc1cc(F)ccc1-c1cc(ncc1F)N2 (single isomer, unassigned; enantiomer 2) [Example 7, 15,19-Difluoro-8-[(S-methylsulfonimidoyl)methyl]-3,4-dihydro-2H,11H-10,6-(azeno)-12,16-(metheno)-1,5,11,13-benzodioxadiazacyclooctadecine; Enantiomer 2] | 7.3 | 0.3 | – | 17 |
